119 compounds from ChEMBL document CHEMBL5344431 (J Med Chem, 2024) can be followed below.

The target of one assay is T1, Histone deacetylase 8 (Homo sapiens, UniProt Q9BY41).
T1 sequence (Q9BY41 whole entry): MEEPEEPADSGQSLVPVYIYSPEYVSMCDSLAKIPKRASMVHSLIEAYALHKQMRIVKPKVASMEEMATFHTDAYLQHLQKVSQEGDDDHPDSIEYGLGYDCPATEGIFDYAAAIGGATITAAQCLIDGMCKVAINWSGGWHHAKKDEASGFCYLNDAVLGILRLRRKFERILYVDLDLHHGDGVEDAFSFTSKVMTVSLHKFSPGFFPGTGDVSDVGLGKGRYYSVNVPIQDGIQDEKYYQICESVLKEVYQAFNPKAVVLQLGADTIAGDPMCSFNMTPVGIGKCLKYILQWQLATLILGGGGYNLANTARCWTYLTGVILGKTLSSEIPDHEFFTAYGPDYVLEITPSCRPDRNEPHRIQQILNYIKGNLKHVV
In words: Inhibition of HDAC8 (unknown origin) using Boc-Lys(TFA)-AMC as substrate preincubated for 1 hr followed by substrate addition and measured after 15 mins by fluorescence based method.

The target of assay [1] is T2, Histone deacetylase 8 (Homo sapiens) (UniProt Q9BY41).
T2 sequence (whole entry): T1 sequence (Q9BY41 whole entry)
In words: Inhibition of HDAC8 (unknown origin) assessed as Kinact using Boc-Lys(TFA)-AMC as substrate by fluorescence based method.

The target of assay [2] is T2, Histone deacetylase 8 (Homo sapiens). In words: Inhibition of HDAC8 in human OCI-AML3 cells assessed as increase in SMC3 acetylation at 20 to 40 uM incubated for 72 hrs by Western blotting analysis. Format: cell-based. Conditions: OCI-AML-3, dose 20-40 µM.
Assay [3] has the same target. In words: Inhibition of HDAC8 (unknown origin) upto 100 uM using Boc-Lys(TFA)-AMC as substrate preincubated for 1 hr followed by substrate addition and measured after 15 mins by fluorescence based method. Conditions: time 75.0 min.
Assay [4] has the same target. In words: Inhibition of HDAC8 in human OCI-AML3 cells assessed as increase in SMC3 acetylation at 10 uM incubated for 72 hrs by Western blotting analysis. Conditions: OCI-AML-3. In kind it is cell-based.
For assay [5] the target is unchanged. In words: Inhibition of HDAC8 (unknown origin) at 0.0001 to 10000 uM using Boc-Lys(TFA)-AMC as substrate preincubated for 1 hr followed by substrate addition and measured after 15 mins by fluorescence based method. Particulars: dose 0.0001-10000 µM, time 75.0 min.

Each structure is given as a SMILES string. pIC50: −log10 of the molar value. Activity calls are given as the source filed them. The rule behind the calls is not given here.

In turn, `Brc1cncs1` had a pIC50 against Histone deacetylase 8 of 5.25.
Same read-out and setting: the same measure for `C[n+]1cccc(C#N)c1`: 4.92; for `Brc1cccnc1`: under 4.30.
Take `N#Cc1ccncn1`: the pIC50 on Histone deacetylase 8 was under 4.30.
In the case of `Cc1noc(C)c1I`, the negative logarithm of the IC50 (pIC50) against Histone deacetylase 8 was under 4.30.
Same read-out and setting: to `Cn1cc(C#N)c[n+]1C` belongs under 4.30; to `Brc1ccncc1`, under 4.30; to `C#Cc1cn[nH]c1`, under 4.30.
Same read-out and setting: to `Brc1nccs1` belongs under 4.30; to `C[n+]1cccnc1Br`, 6.66.
On the same count and under the same terms, to `N#Cc1cn[nH]c1` belongs under 4.30; to `Ic1ncccn1`, 5.65.
For `Ic1cncnc1`, at Histone deacetylase 8, the pIC50 is under 4.30.
Still for that read-out and setting: to `C=Cc1cnccn1` belongs under 4.30.
The same measure, in the same setting: the same measure for `N#Cc1ccncc1` [ISONICOTINONITRILE]: under 4.30.
`C#Cc1c[n+](C)ccn1` gave a pIC50 on Histone deacetylase 8 of 6.38.
On to `Clc1cn[nH]c1`, for which the pIC50 against Histone deacetylase 8 is under 4.30.
The same measure, in the same setting: the same measure for `Cn1c(I)cc[n+]1C`: 4.72.
Still for that read-out and setting: the same measure for `C#Cc1cncnc1`: under 4.30.
`C#Cc1ccc[n+](C)c1`: the pIC50 against Histone deacetylase 8 was 5.09. Moreover, the K in assay [1] was 0.003 s⁻¹. Also, in assay [2], the inhibition result was “Active”.
For `C[n+]1ccc(C#N)cc1`, the pIC50 on Histone deacetylase 8 is 4.85.
Still for that read-out and setting: the same measure for `Ic1ccncc1`: 5.34; for `Clc1ccccn1` [2-CHLOROPYRIDINE]: under 4.30.
For `Cn1c(Br)cc[n+]1C`, the pIC50 against Histone deacetylase 8 is 4.64.
In turn, `C[n+]1ccc(Cl)cc1` gave a pIC50 at Histone deacetylase 8 of 5.19.
Still for that read-out and setting: to `C#Cc1ncccn1` belongs under 4.30.
On the same count and under the same terms, the same measure for `C[n+]1cncc(I)c1`: 6.92; for `C[n+]1ccc(Br)cc1`: 5.51.
With `C#Cc1cnccc1NC(=O)N1Cc2ccccc2C1`, in assay [3], the inhibition entry is “inactive”.
The compound `Cn1cc[n+](C)c1Cl` had a negative-log IC50 (pIC50) against Histone deacetylase 8 of 6.01.
The same measure, in the same setting: to `C[n+]1cccc(I)c1` belongs 5.33.
The same measure, in the same setting: the same measure for `C[n+]1cnccc1C#N`: 5.44; for `C[n+]1cccc(Br)c1`: 5.10.
For the compound `C#Cc1cnccc1NC(=O)CC(=O)N1Cc2ccccc2C1`, the inhibition result in assay [3] is “inactive”.
At Histone deacetylase 8, `Brc1cnccn1` had a pIC50 of under 4.30.
The same measure, in the same setting: to `N#Cc1cncnc1` belongs under 4.30; to `C[n+]1cccc(Cl)c1`, 4.85; to `N#Cc1cccnc1`, under 4.30.
Same read-out and setting: to `Clc1ccncc1` belongs under 4.30; to `Cn1cc(I)c[n+]1C`, 5.05; to `C=Cc1cnc[n+](C)c1`, 5.30.
The same measure, in the same setting: the same measure for `C[n+]1ccnc(Br)c1`: 4.57; for `C=Cc1ccncc1`: under 4.30; for `C[n+]1csc(Br)c1`: 6.89.
`Clc1ncccn1`: the negative-log IC50 (pIC50) at Histone deacetylase 8 was under 4.30.
Same read-out and setting: the same measure for `C[n+]1ccsc1Br`: 5.92.
Compound `C#Cc1cccnc1` gave a pIC50 at Histone deacetylase 8 of under 4.30.
Still for that read-out and setting: to `C[n+]1ccoc1I` belongs 5.92.
Still for that read-out and setting: the same measure for `Ic1ncco1`: under 4.30; for `C=Cc1ccn[nH]1`: under 4.30.
Still for that read-out and setting: to `C[n+]1ccccc1Cl` belongs under 4.30.
Take `Brc1ccn[nH]1`: on Histone deacetylase 8, the pIC50 is under 4.30.
In the case of `Brc1cncnc1`, the pIC50 against Histone deacetylase 8 is under 4.30.
Same read-out and setting: to `C#Cc1ccncc1` belongs 4.90; to `C#Cc1nccc[n+]1C`, 6.13.
The same measure, in the same setting: the same measure for `Cn1cc(I)[n+](C)c1`: 4.51; for `Cn1cc[n+](C)c1C#N`: 4.66; for `C=Cc1cccnc1`: under 4.30.
Still for that read-out and setting: to `Cn1cc(Cl)[n+](C)c1` belongs 4.80.
In the case of `C[n+]1ccnc(Cl)c1`, at Histone deacetylase 8, the pIC50 was 5.64.
Consider `C#Cc1c[n+](C)ccc1NC(=O)CC(=O)N1Cc2ccccc2C1`, for which, in assay [1], the K was found to be 0.005 s⁻¹. Further, the inhibition result in assay [4] is “Active”.
Consider `C=Cc1c[n+](C)ccn1`, for which the pIC50 at Histone deacetylase 8 is 6.38.
On the same count and under the same terms, to `C[n+]1cccnc1Cl` belongs 6.37; to `Ic1cnccn1`, under 4.30.
Turning to `C#Cc1cccc[n+]1C`, the pIC50 at Histone deacetylase 8 is 5.68.
Same read-out and setting: to `C=Cc1cc[n+](C)n1C` belongs under 4.30; to `Brc1ccccn1`, under 4.30.
On the same count and under the same terms, to `Cc1o[n+](C)c(C)c1I` belongs 5.54; to `N#Cc1ccccn1`, under 4.30; to `C#Cc1cc[n+](C)cc1`, 7.10.
The same measure, in the same setting: the same measure for `Ic1ccn[nH]1`: under 4.30.
With `Cn1cc(Cl)c[n+]1C`, the pIC50 against Histone deacetylase 8 was 4.85.
Still for that read-out and setting: to `C[n+]1ccccc1C#N` belongs 5.28; to `C#Cc1ccn[nH]1`, under 4.30.
Same read-out and setting: the same measure for `Cn1cc(Br)[n+](C)c1`: 4.70; for `C[n+]1ccc(I)cc1`: 6.36; for `C=Cc1cc[n+](C)cc1`: 5.47.
On the same count and under the same terms, to `Clc1ncc[nH]1` belongs under 4.30.
`N#Cc1cnccn1` showed a pIC50 against Histone deacetylase 8 of under 4.30.
The same measure, in the same setting: to `C[n+]1cnccc1Cl` belongs under 4.30; to `C=Cc1ccc[n+](C)c1`, 5.30; to `C#Cc1cnccn1`, under 4.30.
Still for that read-out and setting: the same measure for `Clc1cccnc1`: under 4.30; for `C#Cc1cnc[n+](C)c1`: 4.68; for `C[n+]1ccccc1I`: 6.36.
In turn, `Cn1cc(Br)c[n+]1C` had a pIC50 against Histone deacetylase 8 of 4.57.
The same measure, in the same setting: the same measure for `C=Cc1cncnc1`: under 4.30; for `Clc1c[nH]cn1`: under 4.30.
For `C#Cc1c[n+](C)ccc1NC(=O)CCC(=O)N1Cc2ccccc2C1`, the inhibition entry in assay [3] and in assay [5] was “inactive” each time.
For the compound `C=Cc1ccccn1`, at Histone deacetylase 8, the pIC50 was under 4.30.
Still for that read-out and setting: to `Clc1cncnc1` belongs under 4.30.
Regarding `Ic1ncc[nH]1`, at Histone deacetylase 8, the pIC50 was under 4.30.
Same read-out and setting: the same measure for `N#Cc1nccs1`: under 4.30; for `C#Cc1ccccn1`: under 4.30; for `Clc1ccncn1`: under 4.30.
On the same count and under the same terms, the same measure for `Brc1ncccn1`: under 4.30; for `C[n+]1ccccc1Br`: 5.89; for `C#Cc1cn(C)[n+](C)c1`: 5.00.
The same measure, in the same setting: to `C[n+]1cncc(Cl)c1` belongs 5.37; to `Clc1cnccn1`, under 4.30.
Consider `C#Cc1c[n+](C)ccc1NC(=O)N1Cc2ccccc2C1`, for which the inhibition entry in assay [5] was “inactive”.
Turning to `Brc1ncc[nH]1`, the pIC50 against Histone deacetylase 8 was under 4.30.
The same measure, in the same setting: to `C[n+]1ccnc(C#N)c1` belongs under 4.30; to `Ic1c[nH]cn1`, under 4.30; to `C[n+]1ccnc(I)c1`, 4.57.
As to `C#Cc1cnccc1NC(=O)CCC(=O)N1Cc2ccccc2C1`, the inhibition entry in assay [3] is “inactive”.
In turn, `Cn1cc[n+](C)c1Br` had a pIC50 at Histone deacetylase 8 of 6.48.
Still for that read-out and setting: the same measure for `C#Cc1cc[n+](C)n1C`: under 4.30.
Same read-out and setting: the same measure for `Ic1cn[nH]c1`: under 4.30; for `Cn1cc(C#N)[n+](C)c1`: 4.62.
On the same count and under the same terms, to `C[n+]1cccnc1I` belongs 6.82; to `Brc1c[nH]cn1`, under 4.30; to `N#Cc1ncc[nH]1`, under 4.30.
`C[n+]1ccsc1C#N`: the pIC50 on Histone deacetylase 8 was under 4.30.
Same read-out and setting: to `Cn1cc[n+](C)c1I` belongs 5.74; to `C[n+]1cncc(C#N)c1`, under 4.30; to `C[n+]1cncc(Br)c1`, 6.52.
On to `N#Cc1c[nH]cn1`, for which the pIC50 on Histone deacetylase 8 is under 4.30.
On the same count and under the same terms, to `Brc1cn[nH]c1` belongs under 4.30.
